This passage reports IC50 and EC50 results from US20100303758A1, “Novel Glucocorticoid Receptor Agonists” (priority 2009, published 2010).

Assay [1] is described as follows: Inhibition of TNF-α release from LPS stimulated isolated human PBMC. The note with it: Homo sapiens, PBMC, read-out: IC50 (nM) for inhibition of TNF-α release. The class given is cell-based. As to the method:
The anti-inflammatory activity of the compounds against human leukocytes in vitro was also evaluated by determining inhibition of tumour necrosis factor-α (TNF-α) release from lipopolysaccharide (LPS) stimulated isolated human peripheral mononuclear cells (PBMC).
Peripheral venous blood from healthy, non-medicated donors was collected using ethylenediaminetetraacetic acid (EDTA) as the anti-coagulant. For PBMC preparation, samples of blood were diluted 1:1 with sterile phosphate buffered saline and then separated using ACCUSPIN™ System-Histopaque®-1077 tubes (Sigma-Aldrich, St Louis, Mo.), centrifuged at 400 g for 35 minutes. Buffy coat cells were removed into PBS, centrifuged at 200 g for 10 minutes and re-suspended in PBMC assay buffer (Hanks Balanced Salt Solution, 0.28% [w/v] 4-[2-hydroxyethyl]-1-piperazineethanesulfonic acid [HEPES], 0.01% [w/v] low-endotoxin bovine serum albumin [BSA]. A differential white cell count was performed and PBMC's diluted to 1×10^6 lymphocytes per ml in PBMC assay buffer.
Test compounds were dissolved in DMSO and diluted in PBMC assay buffer (final DMSO concentration 1%) to cover an appropriate concentration range, e.g 0.001 nM to 10000 nM. Samples of test compound solution or vehicle (20 μl) were added into 96-well tissue culture treated plates (Corning) and PBMC (160 μl) added to each well. The assay mixtures were incubated at 37° C. for 1 h in a humidified incubator containing an atmosphere of air supplemented with 5% CO2 before adding LPS (20 μl of 100 ng/ml for PBMC). Plates were returned to the incubator for a further 18 hours, and then centrifuged before recovery of samples of supernatant. TNF-α in the samples was determined using an enzyme-linked immunosorbent assay (ELISA) (Invitrogen kit no CHC-1754; Invitrogen Carlsbad, Calif.) and following the manufacturers instructions. Dose response curves were constructed from which IC50 values were calculated.

A further assay has as its target T1, human GR (Homo sapiens, UniProt P04150).
T1 construct: SW1353 naturally expresses human GR; endogenous in cells; host or cells: human chondrosarcoma cell-line SW1353 stably transfected with an MMTV-luciferase reporter construct
T1 sequence (P04150 1-777): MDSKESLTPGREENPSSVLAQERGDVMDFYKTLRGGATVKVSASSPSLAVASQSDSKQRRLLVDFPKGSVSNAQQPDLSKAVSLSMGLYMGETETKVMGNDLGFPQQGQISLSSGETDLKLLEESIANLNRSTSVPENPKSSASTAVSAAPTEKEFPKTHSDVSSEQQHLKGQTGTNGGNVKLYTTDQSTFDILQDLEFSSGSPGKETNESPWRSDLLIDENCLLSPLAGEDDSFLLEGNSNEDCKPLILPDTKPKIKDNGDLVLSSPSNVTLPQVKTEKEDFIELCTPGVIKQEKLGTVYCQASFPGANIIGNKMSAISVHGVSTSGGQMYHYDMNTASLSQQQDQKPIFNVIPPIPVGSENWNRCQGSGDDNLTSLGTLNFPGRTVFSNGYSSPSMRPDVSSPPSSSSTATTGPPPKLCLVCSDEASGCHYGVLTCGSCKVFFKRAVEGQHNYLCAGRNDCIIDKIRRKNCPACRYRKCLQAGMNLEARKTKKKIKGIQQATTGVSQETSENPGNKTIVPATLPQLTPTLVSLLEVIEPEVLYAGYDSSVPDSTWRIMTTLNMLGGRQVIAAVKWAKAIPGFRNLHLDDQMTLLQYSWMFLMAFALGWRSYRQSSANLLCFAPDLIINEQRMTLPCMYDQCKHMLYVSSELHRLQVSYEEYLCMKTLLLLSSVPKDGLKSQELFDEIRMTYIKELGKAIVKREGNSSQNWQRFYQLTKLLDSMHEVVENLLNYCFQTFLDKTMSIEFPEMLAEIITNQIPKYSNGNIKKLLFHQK
Nature of the assay: GR agonist potency, MMTV-luciferase reporter in SW1353 cells. The assay is classed as cell-based. The note with it: human chondrosarcoma cell-line SW1353 stably transfected with MMTV-luciferase reporter; approx. 18 hours; data as percentage of 1 μM dexamethasone positive control. How it is done: Glucococorticoid receptor (GR) agonist potency was determined in the human chondrosarcoma cell-line SW1353 stably transfected with an MMTV-luciferase reporter construct. SW1353 naturally expresses human GR, which on binding a glucocorticoid agonist activates glucocorticoid response elements within the MMTV promoter, driving expression of the luciferase gene.
Frozen SW1353 cells were revived in DMEM medium, without sodium pyruvate or phenol red, supplemented with 2 mM L-glutamine, 1 μg/ml insulin, 2 mg/ml lactalbumin hydrosylate and 0.5 μg/ml ascorbate. Cells were seeded at approximately 5000 cells/well (35 μl/well) in 384-well clear bottom, tissue culture treated plates. Steroid dose-response dilutions were prepared in steroid diluent (PBS containing 2.5% (v/v) DMSO and 0.05% (v/v) pluronic detergent) and 5 μl added to each well. The volume was made up to 50 μl per well with steroid diluent. Positive control wells contained 1 μM dexamethasone. Plates were incubated for approximately 18 hours at 37° C. in an air/5% CO2 atmosphere in a humidified incubator before Britelite reagent (10 μl; Perkin-Elmer) was added to each well. Each plate was incubated for 2 minutes in the dark and luminescence quantified using a LJL Biosystems Analyst luminometer. Data for test compounds (expressed as percentage of the dexamethasone positive control) were used to construct dose response curves from which EC50 values were estimated.
(In a reporter assay the amount or activity of a reporter protein is the signal.)

With `C[C@]12C=CC(=O)C=C1[C@@H](F)C[C@H]1[C@@H]3CC[C@](OC(=O)c4ccc(Cc5ccccc5)cc4)(C(=O)OCC#N)[C@@]3(C)C[C@H](O)[C@@]12F` [Example 1, cyanomethyl(6alpha,11beta,17alpha)-17-[(4-benzylbenzoyl)oxy]-6,9-difluoro-11-hydroxy-3-oxoandrosta-1,4-diene-17-carboxylate], in assay [1], the IC50 was 0.095 nM. For the same molecule, it took 22.3 nM to reach a half-maximal effect on human GR (EC50).
On the same counts, the results for `C[C@]12C=CC(=O)C=C1[C@@H](F)C[C@H]1[C@@H]3CC[C@](OC(=O)c4ccc(-c5ccccc5)cc4)(C(=O)OCC#N)[C@@]3(C)C[C@H](O)[C@@]12F` [Example 2, Cyanomethyl(6alpha,11beta,17alpha)-17-[(biphenyl-4-ylcarbonyl)oxy]-6,9-difluoro-11-hydroxy-3-oxoandrosta-1,4-diene-17-carboxylate] are 0.373 nM and 115 nM.
As to `C[C@]12C=CC(=O)C=C1[C@@H](F)C[C@H]1[C@@H]3CC[C@](OC(=O)c4ccc(Sc5ccccc5)cc4)(C(=O)OCC#N)[C@@]3(C)C[C@H](O)[C@@]12F` [Example 3, cyanomethyl (6alpha,11beta,17alpha)-6,9-difluoro-11-hydroxy-3-oxo-17-{[4-(phenylthio)benzoyl]oxy}androsta-1,4-diene-17-carboxylate], in assay [1], the IC50 came to 0.143 nM. In addition, the EC50 at human GR is 50.5 nM.
As for `C[C@]12C=CC(=O)C=C1[C@@H](F)C[C@H]1[C@@H]3CC[C@](OC(=O)c4ccc(Oc5ccccc5)cc4)(C(=O)OCC#N)[C@@]3(C)C[C@H](O)[C@@]12F` [Example 4, cyanomethyl (6alpha,11beta,17alpha)-6,9-difluoro-11-hydroxy-3-oxo-17-[(4-phenoxybenzoyl)oxy]androsta-1,4-diene-17-carboxylate], the IC50 in assay [1] is 0.154 nM. The same molecule gave an EC50 on human GR of 23.6 nM.
`C[C@]12C=CC(=O)C=C1[C@@H](F)C[C@H]1[C@@H]3CC[C@](OC(=O)c4ccc(CSc5ccccc5)cc4)(C(=O)OCC#N)[C@@]3(C)C[C@H](O)[C@@]12F` [Example 5, cyanomethyl (6alpha,11beta,17alpha)-6,9-difluoro-11-hydroxy-3-oxo-17-({4-[(phenylthio)methyl]benzoyl}oxy)androsta-1,4-diene-17-carboxylate]: in assay [1], the IC50 came to 0.152 nM. The molecule further registered an EC50 on human GR of 33.3 nM.
On the same counts, the results for `C[C@]12C=CC(=O)C=C1[C@@H](F)C[C@H]1[C@@H]3CC[C@](OC(=O)c4ccc(SCc5ccc(O)cc5)cc4)(C(=O)OCC#N)[C@@]3(C)C[C@H](O)[C@@]12F` [Example 6, cyanomethyl (6alpha,11beta,17alpha)-6,9-difluoro-11-hydroxy-17-({4-[(4-hydroxybenzyl)thio]benzoyl}oxy)-3-oxoandrosta-1,4-diene-17-carboxylate] are 0.207 nM and 23.5 nM.
In the case of `C[C@]12C=CC(=O)C=C1CC[C@H]1[C@@H]3CC[C@](OC(=O)c4ccc(-c5ccccc5)cc4)(C(=O)OCC#N)[C@@]3(C)C[C@H](O)[C@@]12F` [Example 7, cyanomethyl (11beta,17alpha)-17-[(biphenyl-4-ylcarbonyl)oxy]-9-fluoro-11-hydroxy-3-oxoandrosta-1,4-diene-17-carboxylate], the IC50 in assay [1] is 0.555 nM. At human GR, this molecule registered a concentration giving a half-maximal response (EC50) of 39.9 nM.
On the same counts, the results for `C[C@]12C=CC(=O)C=C1CC[C@H]1[C@@H]3CC[C@](OC(=O)c4ccc(Sc5ccccc5)cc4)(C(=O)OCC#N)[C@@]3(C)C[C@H](O)[C@@]12F` [Example 8, cyanomethyl (11beta,17alpha)-9-fluoro-11-hydroxy-3-oxo-17-{[4-(phenylthio)benzoyl]oxy}androsta-1,4-diene-17-carboxylate] are 0.292 nM and 25 nM.
For `CSc1cccc(Sc2ccc(C(=O)O[C@]3(C(=O)OCC#N)CC[C@H]4[C@@H]5CCC6=CC(=O)C=C[C@]6(C)[C@@]5(F)[C@@H](O)C[C@@]43C)cc2)c1` [Example 10, cyanomethyl (11beta,17alpha)-9-fluoro-11-hydroxy-17-[(4-{[3-(methylthio)-phenyl]thio}benzoyl)oxy]-3-oxoandrosta-1,4-diene-17-carboxylate], the IC50 in assay [1] turned out to be 0.826 nM. The same molecule came in with a concentration giving a half-maximal response (EC50) at human GR of 62.1 nM.
On the same counts, the results for `C[C@]12C=CC(=O)C=C1[C@@H](F)C[C@H]1[C@@H]3CC[C@](OC(=O)c4ccc(CSc5ccc(O)cc5)cc4)(C(=O)OCC#N)[C@@]3(C)C[C@H](O)[C@@]12F` [Example 11, cyanomethyl(6alpha,11beta,17alpha)-6,9-difluoro-11-hydroxy-17-[(4-{[(4-hydroxyphenyl)thio]methyl}benzoyl)oxy]-3-oxoandrosta-1,4-diene-17-carboxylate] are 0.735 nM and 30.2 nM.
For `C[C@]12C=CC(=O)C=C1CC[C@H]1[C@@H]3CC[C@](OC(=O)c4ccc(Oc5ccc(O)c(Cl)c5)cc4)(C(=O)SCC#N)[C@@]3(C)C[C@H](O)[C@@]12F` [Example 12, (11beta,17alpha)-17-{[(cyanomethyl)thio]-carbonyl}-9-fluoro-11-hydroxy-3-oxoandrosta-1,4-dien-17-yl 4-(3-chloro-4-hydroxyphenoxy)benzoate] the same measures were 0.345 nM and 117 nM.
On the same counts, the results for `C[C@]12C=CC(=O)C=C1CC[C@H]1[C@@H]3CC[C@](OC(=O)c4ccc(Sc5ccc(O)c(Cl)c5)cc4)(C(=O)SCC#N)[C@@]3(C)C[C@H](O)[C@@]12F` [Example 13, (11beta,17alpha)-17-{[(cyanomethyl)thio]carbonyl}-9-fluoro-11-hydroxy-3-oxoandrosta-1,4-dien-17-yl 4-[(3-chloro-4-hydroxyphenyl)thio]benzoate] are 0.799 nM and 80.9 nM.
In the case of `C[C@]12C=CC(=O)C=C1CC[C@H]1[C@@H]3CC[C@](OC(=O)c4ccc(Oc5ccccc5)cc4)(C(=O)OCC#N)[C@@]3(C)C[C@H](O)[C@@]12F` [Example 14, cyanomethyl(11beta,17alpha)-9-fluoro-11-hydroxy-3-oxo-17-[(4-phenoxybenzoyl)oxy]androsta-1,4-diene-17-carboxylate], in assay [1], the IC50 turned out to be 0.234 nM. The molecule further gave an EC50 on human GR of 23.9 nM.
For `C[C@]12C=CC(=O)C=C1CC[C@H]1[C@@H]3CC[C@](OC(=O)c4ccc(Sc5cccc(O)c5)cc4)(C(=O)OCC#N)[C@@]3(C)C[C@H](O)[C@@]12F` [Example 15, cyanomethyl(11beta,17alpha)-9-fluoro-11-hydroxy-17-({4-[(3-hydroxyphenyl)thio]-benzoyl}oxy)-3-oxoandrosta-1,4-diene-17-carboxylate] the same measures were 0.164 nM and 35.1 nM.

What is called IC50 is the point on the concentration scale where inhibition reaches its midpoint. A word on the EC50: it is the concentration giving half of the maximal effect. High values mean a less potent agent, low ones a more potent agent.
